Source: US20150045313A1, “Ectoparasiticidal Methods and Formulations” (Eli Lilly and Company, priority 2009, published 2015)
Like-named read-outs stand apart in the source and are kept apart here.

Assays:
House Fly = assay: Adult House Fly Assay (AhsF); design: species or system Musca domestica; details: 24 h, read-out: Potency (24 h EC50 μM)
Procedure: Adult Stable or House Fly Assay (ASF, AhsF). This assay is conducted essentially as described in White, W. H., S. M. Bauer, X. Zhao et al., Comparison of in vitro and in vivo ectoparasiticide activity of an experimental benzimidazole-carbamate with permethrin and amitraz, J. Med. Entomol. 42, 207-211 (2005); and White, W. H., C. M. McCoy, J. A. Meyer et al., Knockdown and mortality comparisons among spinosad-, imidacloprid-, and methomyl-containing baits against susceptible Musca domestica (Diptera: Muscidae) under laboratory conditions, J. Econ. Entomol. 100, 155-163 (2007).
Test material is formulated in DMSO at 10 mM. Doubling dilutions in like solvent are made to yield 10 testing levels. Materials are diluted in either bovine serum (stable flies) or 5% glucose solution (house flies) to obtain desired exposure concentrations from 200-0.39 μM. Approximately 3 ml of diluted test material is placed into a test tube (n=3 per test level) and a dental wick is used to absorb fluid. One dental wick is placed into a small weigh boat inside of a 100 mm Petri dish. Approximately 10 mixed-sex adult flies are anesthetized using carbon dioxide and counted into each dish. Dishes are incubated at 27° C. and 50-70% relative humidity. Flies recover from anesthesia and feed on compound-soaked dental wicks. After 24 h, live/dead flies are enumerated. Nonlinear regression is used to model dose-mortality relationship and obtain relative potency (LD50) data compared to contemporaneous controls (solvent-only or permethrin).

Cat Flea = assay: Flea Contact Assay (FCA); details: Cat Flea
Procedure: Flea Contact Assay (FCA)/Cat Flea: Test material is formulated in acetone at the desired exposure concentration and doubling dilutions performed to obtain a total of 10 testing levels. Approximately 0.05 ml of formulated material is dispensed into the bottom of a test tube containing a small amount of dog hair. Acetone is allowed to evaporate under a fume hood overnight. Approximately 10 mixed-sex adult cat flea are anesthetized using carbon dioxide and dispensed into each tube. Tubes are sealed using a ventilated plastic cap and incubated at 27° C. and 75-80% relative humidity. […] Nonlinear regression is used to model dose-mortality relationship and obtain relative potency (LD50) data compared to contemporaneous controls (acetone-only or fipronil).

[1] = system: Horn Fly (Haematobia irritans); assay: Cattle Ectoparasiticide Test, pour-on or spray against horn flies; type: in vivo; details: cattle, Initial
Text: Cattle Ectoparasiticide Test (CET)/Horn Fly (Haematobia irritans) and/or Adult Tick (Amblyomma americanum): Cattle are housed in environmentally controlled rooms, 1 or 2 animals per room that have screened doors and ventilation system to prevent fly escape. Following treatment application, a defined number of horn flies are released into each room (typically at or above economic threshold of 200 flies per animal). After defined periods of time, the numbers of live horn flies remaining on animals are enumerated. If a combination horn fly and tick experiment is conducted, adult lone star ticks are placed into surgical stockinette enclosures that are glued onto the backs of cattle. Cattle are restrained in a modified head gate within environmentally controlled rooms. Horn flies may be enumerated, followed by determination of the numbers of dead ticks inside of containment units. Typically there are 2 containment units per animal and at least 2 animals per treatment group.
B) Therapeutic and residual efficacy testing of spinetoram and Elector against horn flies when applied topically to cattle as a pour-on or topical spray. Spinetoram (120 g/L), Elector (25 g/L spinosad) as described previously were used. Test material was applied to animals as either a whole-body topical spray or neat pour-on. Spinetoram was diluted in water to 25 g/L prior to application as a pour-on. Both materials were diluted in water to 0.04% (400 ppm) for application as a whole-body spray in a total volume of 1 L per animal. There were a total of six animals per treatment group (n=6) plus six negative control animals. Beef and dairy cattle were used. Following treatments, horn flies were released into rooms harboring cattle. Live flies were enumerated 24 h following challenges.

Boophilus annulatus = assay: Whole-body spray treatment of Boophilus annulatus infestations on cattle; type: in vivo; design: residual efficacy, mean percentage control of the IF, Week 3 / residual efficacy, mean percentage control of the IF, Week 4: concentration or dose not given beside the values; residual efficacy, mean percentage control of the IF, Week 2: tested at 0.025% (250 ppm)
Procedure: C) Efficacy Testing and comparison of topically applied spinetoram with spinosad for the treatment of Boophilus annulatus infestations on cattle. Technical spinetoram and technical spinosad both formulated as 25 g/L suspension concentrate formulations similar to commercial Elector. Stability assays (HPLC and LPT bioassays) were conducted to confirm potency over extended periods of time (5 weeks) at cool and shelf-temperatures. Cattle were pre-infested 21 d prior to treatment with larval-stage B. annulatus ticks resulting the presence of very high numbers of all three life-stages of this tick at the time of treatment. Test materials were diluted to 0.025% (250 ppm) and applied to cattle as whole-body topical sprays in a volume of 10 L per animal. There were a total of six animals per treatment group (n=6). Animals were housed in covered stalls under ambient conditions of temperature and humidity. Engorged, detached adult female ticks were retrieved from animals in each stall on a daily basis. Egg masses were weighed and eggs were set for hatching to assess viability. Efficacy was measured in terms of total numbers of female ticks per animal and index of fecundity (IF).
Means were tested by General Linear Model (GLM), 1-way ANOVA. Differences (P<0.05) among means were separated using Tukey's all pairwise comparison. Means within the same column followed by different letters were significant at the P<0.05 level.
Means were tested by General Linear Model (GLM), 2-way ANOVA with parasitic life stage and treatment group as main effects. NS denotes not significant.

Lone Star Tick = assay: Larval Packet Test (LPT); details: Lone Star Tick larvae, 24 h
Procedure: Larval Packet Test (LPT)/Ticks: Test material is formulated in a 2:1 ratio of trichloroethylene: olive oil. Tissue biopsy bags are saturated with 1 ml of formulated material (n=3 per test level), and bags are allowed to dry under a fume hood for at least 2 hours. Approximately 50-100 larval-stage ticks are placed into each bag, and the bag is sealed using a plastic dialysis clip and incubated for 24 h at 27° C. and 95% relative humidity. Bags are then opened, and live/dead ticks are enumerated. Nonlinear regression is used to model dose-mortality relationship and obtain relative potency (LD50) data compared to contemporaneous controls (solvent-only or fipronil).

[2] = cattle, 0.025% AI whole-body spray, mean ± SD

Compound: N#Cc1nn(-c2c(Cl)cc(C(F)(F)F)cc2Cl)c(N)c1[S+]([O-])C(F)(F)F (stereo not drawn) [Fipronil, fipronil]
- EC50 (House Fly; Musca domestica): 0.97 µM
- Potency (EC50 ng/cm^2) 24 h (Cat Flea): 43.56 ng/cm^2
- Potency (EC50 ng/cm^2) 48 h (Cat Flea): 22.18 ng/cm^2

Compound: spinosad
- GM percent horn fly reduction after 24 hrs, Pour-on ([1]; pour-on 2 mg/kg): 99.9%
- GM percent horn fly reduction after 24 hrs, Spray ([1]; whole-body spray 0.04% AI): 100%
- EC50 (House Fly; House Fly): 12 µM
- initial/knockdown activity against B. annulatus (Boophilus annulatus; cattle, 0.025% AI): poor
- Number ♀♀ Ticks per Calf (Boophilus annulatus; [2]): 2423 ± 311 a
- Total Index of Fecundity (IF) (Boophilus annulatus; [2]): 289 ± 40.1 a
- Percentage Control of the IF (Boophilus annulatus; cattle, 0.025% AI whole-body spray, therapeutic efficacy): 27.6 ± 10.0 a %
- Percentage control, Adult (Boophilus annulatus; parasitic life stage adult, 0.025% AI): 18.5 ± 13.0%
- Percentage control, Larval (Boophilus annulatus; parasitic life stage larva, 0.025% AI): 33.1 ± 16.6%
- Percentage control, Nymph (Boophilus annulatus; parasitic life stage nymph, 0.025% AI): 32.9 ± 10.8%
- residual efficacy, mean percentage control of the IF, Week 1 (Boophilus annulatus; ticks infested as larvae Week 1 after treatment): 97.6 ± 2.1%
- residual efficacy, mean percentage control of the IF, Week 2 (Boophilus annulatus; ticks infested as larvae Week 2 after treatment): 98.5 ± 1.2%
- residual efficacy, mean percentage control of the IF, Week 3 (Boophilus annulatus; ticks infested as larvae Week 3 after treatment): 89.4 ± 6.2%
- residual efficacy, mean percentage control of the IF, Week 4 (Boophilus annulatus; ticks infested as larvae Week 4 after treatment): 89.7 ± 4.8%
- Potency (EC50) (Lone Star Tick): 189.6 ppm
- Potency (EC50 ng/cm^2) 24 h (Cat Flea): 3.084 ng/cm^2
- Potency (EC50 ng/cm^2) 48 h (Cat Flea): 1.500 ng/cm^2

Compound: O=[N+]([O-])NC1=NCCN1Cc1ccc(Cl)nc1 [Imidacloprid, imidacloprid]
- Potency (EC50 ng/cm^2) 24 h (Cat Flea): 11.59 ng/cm^2
- Potency (EC50 ng/cm^2) 48 h (Cat Flea): 7.737 ng/cm^2

Compound: CC1(C)C(C=C(Cl)Cl)C1C(=O)OCc1cccc(Oc2ccccc2)c1 (stereo not drawn) [Permethrin, permethrin]
- Potency (EC50 ng/cm^2) 24 h (Cat Flea): 63.30 ng/cm^2
- Potency (EC50 ng/cm^2) 48 h (Cat Flea): 0.1580 ng/cm^2
